Data published in PMC8390754, “Engineering and functional characterization of a proton-driven β-lactam antibiotic translocation module for bionanotechnological applications” (Scientific Reports, 2021).

Tests used:
[1] = system: C[C@H](N)C(=O)N[C@@H](C)C(=O)O; assay: radioligand uptake kinetics in E. coli; SSM electrophysiology in proteoliposomes; format: cell-based, Yersinia enterocolitica
YePEPT [2] = biological target: T1, YePEPT (Yersinia enterocolitica, UniProt A0A2R9TD79, K314A); assay: [3H]Ala-Ala uptake competition in E. coli at […]; format: cell-based
T1 construct: gene YEP4_02370

YePEPT [3] = biological target: T2, YePEPT (Yersinia enterocolitica, UniProt A0A2R9TD79, F311Y/K314A); assay: [3H]Ala-Ala uptake competition in E. coli overexpressing the transporter; transport confirmed by SSM electrophysiology in proteoliposomes; format: cell-based
T2 construct: gene YEP4_02370

YePEPT [4] = biological target: T3, YePEPT (Yersinia enterocolitica, UniProt A0A2R9TD79); assay: [3H]Ala-Ala uptake competition in E. coli at […]; format: cell-based; conditions: read-out: % inhibition at 5 mM
T3 construct: gene YEP4_02370; wild-type
T3 sequence (A0A2R9TD79 1-511): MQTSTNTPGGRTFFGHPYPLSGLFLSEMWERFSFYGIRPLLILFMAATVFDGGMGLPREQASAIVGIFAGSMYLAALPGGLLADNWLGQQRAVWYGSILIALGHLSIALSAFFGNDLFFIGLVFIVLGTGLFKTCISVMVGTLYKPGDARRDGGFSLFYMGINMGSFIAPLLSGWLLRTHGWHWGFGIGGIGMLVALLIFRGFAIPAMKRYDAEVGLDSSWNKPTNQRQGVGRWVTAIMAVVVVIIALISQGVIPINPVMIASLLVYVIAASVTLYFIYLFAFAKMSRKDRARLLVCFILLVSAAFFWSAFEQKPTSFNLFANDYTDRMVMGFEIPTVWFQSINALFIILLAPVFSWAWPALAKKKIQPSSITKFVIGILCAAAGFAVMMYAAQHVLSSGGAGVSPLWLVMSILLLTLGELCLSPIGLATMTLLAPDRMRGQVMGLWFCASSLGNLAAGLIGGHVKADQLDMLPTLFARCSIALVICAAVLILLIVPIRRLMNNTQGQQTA

YePEPT [5] = biological target: T2, YePEPT; assay: SSM electrophysiology with proteoliposomes of purified transporter ([…]); also uptake inhibition in cells; format: biochemical

| Compound | Km [1] [µM] | [3H]Ala-Ala uptake competition in E. coli at 5 mM (YePEPT [2]) | IC50 (YePEPT [3]) [µM] | inhibition at 5000 µM (YePEPT [4]) [%] | % transported charge relative to Ala-Ala (YePEPT [5]) |
| --- | --- | --- | --- | --- | --- |
| YePEPT (Yersinia enterocolitica subsp. palearctica YE-P4; F311Y/K314A) | 199 | – | – | – | – |
| CC1=C(C(=O)O)N2C(=O)[C@@H](NC(=O)[C@H](N)c3ccc(O)cc3)[C@H]2SC1 [compound 6, cefadroxil] | – | YePEPT^K314A (Fig. 2c) showed a strong increase in affinity for amoxicillin and cefadroxil | 229 | – | – |
| CC1(C)S[C@@H]2[C@H](NC(=O)[C@H](N)c3ccccc3)C(=O)N2[C@H]1C(=O)O [compound 1, ampicillin] | – | – | – | ~50 | 9 % transported charge relative to Ala-Ala |
| CC=CC1=C(C(=O)O)N2C(=O)[C@@H](NC(=O)[C@H](N)c3ccc(O)cc3)[C@H]2SC1 [compound 7, cefprozil] | – | – | 32 | – | – |
| CC1(C)S[C@@H]2[C@H](NC(=O)[C@H](N)c3ccc(O)cc3)C(=O)N2[C@H]1C(=O)O [compound 2, amoxicillin] | – | YePEPT^K314A (Fig. 2c) showed a strong increase in affinity for amoxicillin and cefadroxil | 106 | ~50 | – |
